# Test results published in US20100113602A1, “USE OF HISTONE DEACETYLASE INHIBITORS FOR THE TREATMENT OF CENTRAL NERVOUS SYSTEM METASTASES” (The United States of America,as represented by the …, priority 2007, published 2010).
# Like-named read-outs stand apart in the source and are kept apart here.
# What was measured:
# [1] = system: acetyl Histone H3, acetyl histone H4, p21; assay: Western blot of 231-BR cell lysates after HDI treatment; type: cell-based, human; settings: 231-BR cells; depsipeptide 10 ng/mL or SAHA 5 μM; 0, 8, 24, 48 hours
# Experimental: All cell lines are deemed free of mycoplasma and human pathogens and test negative in mouse antibody production (MAP) tests. […] Drug solution is added once at the beginning and left on the cells for the indicated duration (0, 8, 24, and 48 hours). Controls are performed in the same way with the same amount of vehicle solution for each drug, but without the drug. The vehicle can be DMSO. Cells are lysed according to standard procedures and Western blotting is performed. Primary antibodies specific to the targeted proteins are used including antibodies specific to acetyl Histone H3, acetyl histone H4, p21, and α-tubulin. Horseradish peroxidase-conjugated secondary antibodies purchased from Santa Cruz Biotechnology (Santa Cruz, Calif.) are used at dilutions of 1:5000. Proteins are visualized using enhanced chemilluminescence (Cell Signaling) and autoradiography. […] As histones H3 and H4 become hyperacetylated, protein levels of the cyclin-dependent kinase inhibitor p21 increase. Those changes indicate HDAC inhibition.
# 231-BR cells [2] = assay: MTT proliferation / colonization assay of 231-BR cells; type: cell-based, human
# Experimental: The prepared cells are plated at a density of 15,000 cells/well in a 96 well plate and incubated for 3 hours to permit attachment. Cells are then washed with PBS, and media containing either 0.1% or 1% FBS is added to the cells. […] After a 72-hour incubation, 0.5 mg/mL MTT (Sigma, St. Louis, Mo.) is added and plates are incubated for 2 hours. Media is then aspirated, and MTT dissolved in DMSO for 30 minutes, after which the absorbance is read at a wavelength of 570 nm. […] Data in Table 4 is shown as percent of colonies formed±standard deviation compared to untreated controls. Results are representative of three independent experiments in quintuplicate. Analysis of variance (ANOVA) is used to assess in vitro functions of vehicle treated versus vorinostat treated cells. P values can be two-tailed. Tests can be performed using GraphPad InStat version 3.0 software.
# 231-BR cells [3] = assay: 48-well Boyden chamber chemotaxis (motility) assay; type: cell-based, human; settings: 24 hours drug treatment, 4 hours migration, SAHA 5 μM, depsipeptide 10 ng/mL, VPA 10 mM, TSA 100 ng/mL, ± standard deviation; for Motility Data, mean number of cells that migrate per well, 0.5% FCS: 0.5% FCS chemoattractant; for Motility Data, mean number of cells that migrate per well, Control: Control (no FCS chemoattractant)
# Experimental: 231-BR Cells are used as described in Example 2. A 48-well Boyden chemotaxis chamber is used. Polycarbonate PVP-free Nucleopore filters (8 μm pore size) are coated with 0.01% collagen (BD Bioscience). […] Drug concentrations used are as described in Example 2. 231-BR cells, after 24 hours of vorinostat, other drug treatment, or control are added to the top chamber in DMEM with 1 mg/ml BSA at a concentration of 2×10^6 cells/ml. Chambers are incubated for 4 hours in a 37° C. incubator with 5% CO2. After chambers are disassembled, filters are fixed and stained with reagents from a Diff-Quik® Kit (Fischer Scientific). Cells that migrate through the Boyden chamber are counted using a light microscope. Representative areas are counted to determine the number of cells that have migrated for each well. Data in Table 5 are shown as mean number of cells±standard deviation that migrate per well. Analysis of variance (ANOVA) is used to assess in vitro functions of vehicle treated versus vorinostat treated cells. P values can be two-tailed. Tests can be performed using GraphPad InStat version 3.0 software.
# [4] = system: MDA-MB-231-BR cells brain metastases; assay: Brain metastasis model, intracardiac MDA-MB-231-BR cells in nude mice (Example 5); type: in vivo, Balb/c nude mice; parameters: key to Mean Large Mets: mean no. of large metastases (>50 microns^2) per mouse; key to Mean Micromets: mean no. of metastases in 10 step sections of one hemisphere; settings: for Mean Large Mets: large >50 microns^2
# Experimental: Cells are prepared as described in Example 2 with additional preparation as follows. The retroviral vector pLEGFP-C1 (BD Biosciences, San Jose, Calif.) is transfected into murine fibroblast PT67 packaging cells using Effectene reagent according to the manufacturer's protocol (Qiagen, Germantown, Md.). After 24 hours, enhanced green fluorescent protein (EGFP)-expressing cells are selected in the presence of 1 mg/mL G418 (Invitrogen, Carlsbad, Calif.), and colonies are expanded. Virus is harvested and filtered through a 0.45 um Millex-HA syringe-driven filter (Millipore, Billerica, Mass.) and 231-BR cells are infected with retrovirus for 6 hours. The following day, 231-BR cells are selected in the presence of 0.8 mg/mL G418, and EGFP expression in 95-99% of the cells is confirmed by fluorescent microscopy.
# All animal experiments are conducted under an approved Animal Use Agreement with the NCI. Under isoflurane anesthesia, 20 female Balb/c nude mice (Charles River Laboratories, Frederick, Md.) 5-7 weeks old are inoculated with 500,000 (Experiment 1) or 100,000 (Experiment 2) MDA-MB-231-BR cells in 0.1 mL PBS in the left ventricle of the heart. Mice are monitored daily for signs of ill health. Three days after tumor cell inoculation mice are randomized to treatment groups and treatment is started. […] After 21 days of treatment, mice are euthanized under CO2 anesthesia and brains are excised for imaging. EGFP is detected in whole brains by the Maestro 420 In Vivo Spectral Imaging System (Cambridge Research and Instrumentation, Woburn, Mass.), using software (e.g., Nuance Technology, Burlington, Mass.) to distinguish or unmix images of fluorescence from multiple sources. After imaging, mouse brains are bisected along the sagittal plane and the right hemisphere of the brain is fixed in 4% paraformaldehyde for 24-48 hours at 4° C., then transferred to 20% sucrose overnight at 4° C. and frozen (for EGFP detection/histology). The left hemisphere is forallin-fixed and paraffin embedded for immunohistochemistry. Ten micron brain sections are serially cut and processed for either EGFP microscopy or histology. To detect EGFP, slides are dried at room temperature and 25 uL Vectashield HardSet Mounting Media with DAPI was added (Vector Laboratories, Burlingame, Calif.). Images are captured on a Zeiss Axioskop 2 microscope (Thornwood, N.Y.) using OpenLab software (Improvision, Lexington, Mass.). For staining with hematoxylin and eosin, a standard protocol is followed. Ten serial sections every 300 microns through the brain are analyzed using a 5× objective on a Zeiss microscope, containing an ocular grid with squares of 0.8 mm^2.
# Every micro- or large (>50 microns^2) metastasis in each section is tabulated. Data are representative of two experiments conducted. Wilcoxon rank sum test is used to compare the number of total metastases and the number of large metastases in vehicle treated versus vorinostat treated mice. Tests can be performed using GraphPad InStat version 3.0 software. “Mean Micromets” in Tables 6 and 7 refer to the mean number of metastases counted in 10 step sections from one hemisphere of the brain. “Mean Large Mets” in Tables 6 and 7 refer to the size of metastases determined by a 16 mm^2 ocular grid. Large metastases are greater than 50 microns^2.
# [5] = system: MDA-MB-231BR cells brain metastases; assay: Brain metastasis model, timing of SAHA administration (Example 6); type: in vivo, nude mice; settings: for Large Metastases, Mean number per section: vehicle 7.65; for Micrometastases, Mean number per section: vehicle 170
# Experimental: As described in Example 5, 175,000 MDA-MB-231BR cells in 0.1 mL PBS are injected into the left cardiac ventricle of the heart of nude mice. […] On day [X], mice are euthanized under CO2 anesthesia and brains are excised for imaging as described in Example 5.
# Micro- and large (>50 microns^2) metastases are tabulated. The data set forth in Table 8 are representative of two experiments.
# [6] = mouse, in vivo
# Experimental: All animal experiments are conducted under an approved Animal Use Agreement with the NCI. Under isoflurane anesthesia, 20 female Balb/c nude mice (Charles River Laboratories, Frederick, Md.) 5-7 weeks old are inoculated with 500,000 (Experiment 1) or 100,000 (Experiment 2) MDA-MB-231-BR cells in 0.1 mL PBS in the left ventricle of the heart. Mice are monitored daily for signs of ill health. Three days after tumor cell inoculation mice are randomized to treatment groups and treatment is started. […]. After 21 days of treatment, mice are euthanized under CO2 anesthesia and brains are excised for imaging. EGFP is detected in whole brains by the Maestro 420 In Vivo Spectral Imaging System (Cambridge Research and Instrumentation, Woburn, Mass.), using software (e.g., Nuance Technology, Burlington, Mass.) to distinguish or unmix images of fluorescence from multiple sources. […] Ten serial sections every 300 microns through the brain are analyzed using a 5× objective on a Zeiss microscope, containing an ocular grid with squares of 0.8 mm^2.
# . […] “Mean Micromets” in Tables 6 and 7 refer to the mean number of metastases counted in 10 step sections from one hemisphere of the brain. “Mean Large Mets” in Tables 6 and 7 refer to the size of metastases determined by a 16 mm^2 ocular grid. […]
# [7] = 231-BR cells, 72-hour incubation; SAHA 5 μM, depsipeptide 10 ng/mL, VPA 10 mM, TSA 100 ng/mL; ± standard deviation
# [8] = 150 mg/kg SAHA IP once daily starting on day 3 post-injection until day 21
# [9] = 150 mg/kg SAHA IP once daily starting on day 7 post-injection until day 21
# [10] = 150 mg/kg SAHA IP once daily starting on day 14 post-injection until day 21
structure (smiles),measurement,setting,value
C/C=C1\NC(=O)[C@H]2CSSCC/C=C/[C@H](CC(=O)N[C@H](C(C)C)C(=O)N2)OC(=O)[C@H](C(C)C)NC1=O [Depsipeptide],acetylation of histones H3 and H4 (Western blot),[1],hyperacetylated
same,protein levels of the cyclin-dependent kinase inhibitor p21 (Western blot),[1],increase
same,"Colonization Data, % Control",231-BR cells [2]; [7],10 ± 2.5 % Control
same,dose at which noticeable inhibition occurs,231-BR cells [2]; 231BR cells,≥ 0.001 µg/mL
same,IC50,"231-BR cells [2]; Homo sapiens, read-out: IC50 (growth inhibition, absorbance at 570 nm)",1.5 µg/mL
same,"Motility Data, mean number of cells that migrate per well, 0.5% FCS",231-BR cells [3],678 ± 33
same,"Motility Data, mean number of cells that migrate per well, Control",231-BR cells [3],129 ± 23
"O=C(CCCCCCC(=O)Nc1ccccc1)NO [SAHA, N-Hydroxy-N′-phenyloctanediamide]",acetylation of histones H3 and H4 (Western blot),[1],hyperacetylated
same,"Colonization Data, % Control",231-BR cells [2]; [7],47 ± 1.9 % Control
same,IC50,"231-BR cells [2]; Homo sapiens; read-out: IC50 (growth inhibition, absorbance at 570 nm)",12.6 µM
same,"Motility Data, mean number of cells that migrate per well, 0.5% FCS",231-BR cells [3],756 ± 56
same,"Motility Data, mean number of cells that migrate per well, Control",231-BR cells [3],67 ± 6
same,Mean Micromets,"[4]; Experiment 1 (500,000 cells), 100 mg/kg SAHA IP once daily 21 days, vehicle 205.5",140.4
same,Mean Micromets,"[4]; Experiment 1 (500,000 cells), 150 mg/kg SAHA IP once daily 21 days (lowered from 200 mg/kg), vehicle 205.5",151.8
same,Mean Large Mets,"[4]; Experiment 1, 100 mg/kg SAHA IP once daily 21 days, vehicle 6.8",2.9
same,Mean Large Mets,"[4]; Experiment 1, 150 mg/kg SAHA IP once daily 21 days (lowered from 200 mg/kg), vehicle 6.8",3.5
same,Mean Micromets,"[4]; Experiment 2 (100,000 cells), 100 mg/kg SAHA IP once daily 21 days, vehicle 72.5",78.3
same,Mean Micromets,"[4]; Experiment 2 (100,000 cells), 150 mg/kg SAHA IP once daily 21 days, vehicle 72.5",66.6
same,Mean Large Mets,"[4]; Experiment 2, 100 mg/kg SAHA IP once daily 21 days, vehicle 3.3",4.4
same,Mean Large Mets,"[4]; Experiment 2, 150 mg/kg SAHA IP once daily 21 days, vehicle 3.3",1.5
same,"number of large (>50 micron^2) brain metastases, in words","[4]; in vivo, mice, IP SAHA vs vehicle",reduces the number
same,"Large Metastases, Mean number per section",[5]; [8],2.89
same,"Micrometastases, Mean number per section",[5]; [8],122
same,"Large Metastases, Mean number per section",[5]; [9],4.94
same,"Micrometastases, Mean number per section",[5]; [9],151
same,"Large Metastases, Mean number per section",[5]; [10],5.96
same,"Micrometastases, Mean number per section",[5]; [10],171
same,reduction in large metastases,"[5]; 150 mg/kg SAHA starting on day 3 post-injection, vs vehicle, P<0.001",57%
same,reduction in micrometastases,"[5]; 150 mg/kg SAHA starting on day 3 post-injection, vs vehicle, P=0.017",28%
same,reduction (large metastases),"[5]; 150 mg/kg SAHA starting on day 7 post-injection, vs vehicle, P=0.008",34%
same,reduction in large metastases,"[5]; 150 mg/kg SAHA starting on day 14 post-injection, vs vehicle, not statistically significant",22%
same,toxicity of the higher dosage,[6],toxicity
"CC(/C=C/C(=O)NO)=C\[C@@H](C)C(=O)c1ccc(N(C)C)cc1 [Trichostatin (TSA), trichostatin]","Colonization Data, % Control",231-BR cells [2]; [7],30 ± 3.4 % Control
same,"Motility Data, mean number of cells that migrate per well, 0.5% FCS",231-BR cells [3],785 ± 17
same,"Motility Data, mean number of cells that migrate per well, Control",231-BR cells [3],108 ± 13
"CCCC(CCC)C(=O)O [Valporic Acid, valproic acid]","Colonization Data, % Control",231-BR cells [2]; [7],46 ± 5.3 % Control
same,"Motility Data, mean number of cells that migrate per well, 0.5% FCS",231-BR cells [3],755 ± 37
same,"Motility Data, mean number of cells that migrate per well, Control",231-BR cells [3],242 ± 55
